Assay results as given in patent publication US20250236589A1, “THERAPEUTIC PHENETHYLAMINE COMPOSITIONS AND METHODS OF USE” (Cybin IRL Limited, priority 2022, published 2025).
Like-named read-outs stand apart in the source and are kept apart here.

Columns and labels:
[1] = cited from earlier work
5-HT2A receptor [2] = molecular target: T1, 5-HT2A receptor (Homo sapiens (Human), UniProt P28223); assay: 5-HT2A functional assay, IP1 (IPOne); type: cell-based; settings: for 2A/2B EC50 Selectivity / Emax: IP1 assay; for Emax: relative to 5-HT
Experimental: After incubation, cells were lysed and fluorescence acceptor and donor were added. FRET was measured after 60 min at room temperature using a microplate reader (Envision, Perkin Elmer). TRUPATH assays followed a similar workflow, except that different reagents were used, and LiCl was not included in the samples; the protocol was based on the report by Olsen, R. H. J. et al., cited above.

[3] = In vitro liver microsome stability (RLM); type: in vitro ADME; settings: rat, rat liver microsomes, 0.5 mg/mL microsomes, NADPH, read-out: RLM, t1/2
Experimental: In vitro stability was determined in Human (HLM), Rat (RLM), Mouse (MsLM), and dog (DLM) Liver Microsomes. All liver microsomes were purchased from a commercial supplier (e.g. XenoTech). The reaction mixture, minus NADPH, was prepared as described below. The test compound was added into the reaction mixture at a final concentration of 1 μM or co-dosed with their deuterated analog(s) at 1 μM each. The control compound, testosterone, was run simultaneously with the test compound in a separate reaction. The reaction mixture (without cofactor) was equilibrated in a shaking water bath at 37° C. for 5 minutes. The reaction was initiated by the addition of the cofactor, and the mixture was incubated in a shaking water bath at 37° C. Aliquots (150 μL) were withdrawn at 0, 5, 10, 20, 30, 60, and 120 minutes. Test compound and testosterone samples were immediately combined with 150 μL of ice-cold acetonitrile (ACN) containing 0.1% formic acid and internal standard to terminate the reaction. The samples were then mixed and centrifuged to precipitate proteins. All samples were assayed by LC-MS/MS using electrospray ionization. The peak area response ratio (PARR) of analyte to internal standard at each time point was compared to the PARR at time 0 to determine the percent remaining at each time point. Half-lives were calculated using GraphPad software, fitting to a single-phase exponential decay equation.

mice = assay: Head-twitch response (HTR) screening in mice; type: in vivo, mouse; settings: mice, 3 mg/kg s.c.
Experimental: Protocols were followed according to Canal C E, Morgan D. Head-twitch response in rodents induced by the hallucinogen 2,5-dimethoxy-4-iodoamphetamine: a comprehensive history, a re-evaluation of mechanisms, and its utility as a model. […] Mice were housed in standard laboratory cages with ad libitum access to food and water and were acclimated to the vivarium for at least one week prior to testing in a procedure room. In a typical experiment, mice were injected 3 mg/kg of test article subcutaneously. Mice were placed immediately thereafter in a clear, polycarbonate box (46×20×20 cm), and HTRs were counted at various time points after administration using hand-held tally counters. In a separate experiment, plasma and brain samples were collected at 15 and 160 minutes after administration of test compounds to measure plasma and brain concentrations. Quantification was performed using LC-MS/MS method (LLOQ, 9 nM).

[4] = Plasma and brain concentrations after dosing in mice (screening); type: in vivo, mouse; settings: mouse; for concentration at 15 min / concentration at 160 min: sc, mice, 3 mg/kg s.c.; for Kp at 160 min: brain/plasma, subcutaneous, 3 mg/kg, 160 min after 3 mg/kg, read-out: brain/plasma ratio, 160 min
5-HT1A receptors = 5-HT1A receptors (Homo sapiens (Human), UniProt P08908); assay: 5-HT1A radioligand binding ([3H]8-OH-DPAT); settings: for inhibition at 0.1 µM: 100 nM
Experimental: In another series of 5-HT1A,2A,2B radioligand competition binding assays, the conditions were as follows: For 5-HT1A assays, cell membrane homogenates (˜30 μg protein) derived from HEK-293 cells expressing human 5-HT1ARs were incubated with 0.5 nM [^3H]8-hydroxy-2-(di-n-propylamino)tetralin ([^3H]8-OH-DPAT) for 60 min at room temperature in the presence or absence of the test article. Non-specific binding was determined in the presence of 10 μM 8-OH-DPAT. Samples were then analyzed as described above, with only immaterial differences. […] Samples were then analyzed as described above.

5-HT2A receptor [5] = molecular target: T1, 5-HT2A receptor; assay: 5-HT2A radioligand competition binding ([3H]LSD or [3H]ketanserin)
human 5-HT2B receptor = human 5-HT2B receptor (Homo sapiens (Human), UniProt P41595); assay: 5-HT2B functional assay, IP1 (IPOne); type: cell-based; settings: for Emax: IP1 assay
Experimental: 5-HT2A,2B,2C receptor-mediated Gq activation—canonical signaling pathways—[phosphoinositide hydrolysis leading to the production of inositol phosphate 1 (IP1, IPOne, Cisbio assay) or direct G-protein activation using TRUPATH technology]were measured as previously described (Porter, R. H. P., Benwell, K. R., Lamb, H., Malcolm, C. S., Allen, N. F., Revell, D. F., Adams, D. R. and Sheardown, M. J., 1999, Functional characterization of agonists at recombinant human 5-HT2a, 5HT2b and 5-HT2c receptors in CHO-K1 cells, Brit J Pharmacol 128, 13; Olsen, R. H. J., DiBerto, J. F., English, J. G. et al. TRUPATH, an open-source biosensor platform for interrogating the GPCR transducerome. […] Briefly, for the IPOne assay, for 5-HT2ARs, CHO-K1 or HEK-293 cells were incubated with test articles and 5-HT (positive control) in stimulation buffer containing LiCl. After incubation, cells were lysed and fluorescence acceptor and donor were added. FRET was measured after 60 min at room temperature using a microplate reader (Envision, Perkin Elmer). TRUPATH assays followed a similar workflow, except that different reagents were used, and LiCl was not included in the samples; the protocol was based on the report by Olsen, R. H. J. et al., cited above.

[6] = brain, read-out: Brain, 160 min
[7] = plasma, read-out: Plasma, 15 min
[8] = plasma, read-out: Plasma, 160 min

human 5-HT2B receptor, sequence (P41595 whole entry, looked up): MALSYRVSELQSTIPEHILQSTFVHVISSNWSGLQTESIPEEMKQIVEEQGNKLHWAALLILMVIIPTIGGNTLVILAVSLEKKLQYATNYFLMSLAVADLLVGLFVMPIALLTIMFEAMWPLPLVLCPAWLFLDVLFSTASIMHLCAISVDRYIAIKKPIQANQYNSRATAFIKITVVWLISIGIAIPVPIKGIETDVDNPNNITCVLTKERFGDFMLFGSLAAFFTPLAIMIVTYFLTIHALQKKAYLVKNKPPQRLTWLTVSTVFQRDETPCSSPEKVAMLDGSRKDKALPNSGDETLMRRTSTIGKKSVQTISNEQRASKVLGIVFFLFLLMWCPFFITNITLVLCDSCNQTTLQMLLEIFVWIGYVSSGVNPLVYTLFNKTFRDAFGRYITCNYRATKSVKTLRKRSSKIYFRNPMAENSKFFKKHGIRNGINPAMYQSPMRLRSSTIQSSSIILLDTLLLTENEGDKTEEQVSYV

SMILES: COc1cc(OC)c(OC)cc1CCN [2C—O]
- activity after oral administration [1]: inactive

SMILES: COc1cc(SCCC(F)F)c(OC)cc1CCN [Compound I-3, 2-(4-((3,3-difluoropropyl)thio)-2,5-dimethoxyphenyl)ethan-1-amine]
- EC50 (5-HT2A receptor [2]): 10 nM
- 2A/2B EC50 Selectivity (5-HT2A receptor [2]): 16
- Emax (5-HT2A receptor [2]): 93%
- half-life at 1 μM [3]: 1.85 h
- HTR 15-25 min (mice): 5
- HTR 160-170 min (mice): 2.5
- concentration at 15 min ([4]; brain, read-out: Brain 15 min): 670 nM
- concentration at 160 min [4, 6]: 510 nM
- Kp at 160 min [4]: 9.3
- concentration at 15 min [4, 7]: 700 nM
- concentration at 160 min [4, 8]: 55 nM
- inhibition at 0.1 µM (5-HT1A receptors): 10%
- inhibition at 1 µM (5-HT1A receptors): 63%
- Ki (5-HT2A receptor [5]): 44 nM
- affinity at 5-HT2A receptors (in words) (5-HT2A receptor [5]): high affinity
- Ki (5-HT2A receptor [5]; read-out: 5-HT2A, Ki, [3H]LSD, high-affinity active state): 0.4 nM
- EC50 (human 5-HT2B receptor): 160 nM
- Emax (human 5-HT2B receptor; constrained to 100%): 100%

SMILES: COc1cc(SC(F)F)c(OC)cc1CCN [Compound I-8, 2-(4-((difluoromethyl)thio)-2,5-dimethoxyphenyl)ethan-1-amine]
- EC50 (5-HT2A receptor [2]): 5.3 nM
- 2A/2B EC50 Selectivity (5-HT2A receptor [2]): 12.8
- Emax (5-HT2A receptor [2]): 99%
- HTR 15-25 min (mice): 33.4
- HTR 160-170 min (mice): 17.4
- concentration at 15 min ([4]; brain, read-out: Brain 15 min): 1900 nM
- concentration at 160 min [4, 6]: 2200 nM
- Kp at 160 min [4]: 74
- concentration at 15 min [4, 7]: 300 nM
- concentration at 160 min [4, 8]: 30 nM
- inhibition at 0.1 µM (5-HT1A receptors): 38%
- inhibition at 1 µM (5-HT1A receptors): 84%
- affinity at 5-HT2A receptors (in words) (5-HT2A receptor [5]): high affinity
- Ki (5-HT2A receptor [5]; read-out: 5-HT2A, Ki, radioligand [3H]LSD): 6.3 nM
- EC50 (human 5-HT2B receptor): 67.9 nM
- Emax (human 5-HT2B receptor; relative to 5-HT): 87%
